In PubChem BioAssay (NCI):
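Compound exposure: 48 hours, 5 concentrations, 96-well plates. The concentration for full growth arrest is given as TGI.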

Assays:
Assay in all cases: NCI anticancer screen, dose series, 48 h
COLO 205 colon = test system: COLO 205 colon
OVCAR-8 ovarian = test system: OVCAR-8 ovarian
ACHN renal = test system: ACHN renal
KM20L2 colon = test system: KM20L2 colon
SF-539 CNS = test system: SF-539 CNS
SN12C renal = test system: SN12C renal
SNB-75 CNS = test system: SNB-75 CNS
OVCAR-4 ovarian = test system: OVCAR-4 ovarian
SF-295 CNS = test system: SF-295 CNS
OVCAR-3 ovarian = test system: OVCAR-3 ovarian
UACC-257 melanoma = test system: UACC-257 melanoma
CCRF-CEM leukemia = test system: CCRF-CEM leukemia
RPMI-8226 leukemia = test system: RPMI-8226 leukemia
RXF 393 renal = test system: RXF 393 renal
IGROV1 ovarian = test system: IGROV1 ovarian
HCT-116 colon = test system: HCT-116 colon
HCT-15 colon = test system: HCT-15 colon
MOLT-4 leukemia = test system: MOLT-4 leukemia
SK-MEL-5 melanoma = test system: SK-MEL-5 melanoma
RXF-631 renal = test system: RXF-631 renal
SK-MEL-28 melanoma = test system: SK-MEL-28 melanoma
HCC-2998 colon = test system: HCC-2998 colon
SK-MEL-2 melanoma = test system: SK-MEL-2 melanoma
SW-620 colon = test system: SW-620 colon
NCI-H226 lung = test system: NCI-H226 lung
MALME-3M melanoma = test system: MALME-3M melanoma
786-0 renal = test system: 786-0 renal
M19-MEL melanoma = test system: M19-MEL melanoma
DMS 114 small cell lung = test system: DMS 114 small cell lung
HT29 colon = test system: HT29 colon
LOX IMVI melanoma = test system: LOX IMVI melanoma
HOP-18 NSCLC = test system: HOP-18 NSCLC
DLD-1 colon = test system: DLD-1 colon
A498 renal = test system: A498 renal
UO-31 renal = test system: UO-31 renal
KM12 colon = test system: KM12 colon
K-562 leukemia = test system: K-562 leukemia
NCI-H522 lung = test system: NCI-H522 lung
TK-10 renal = test system: TK-10 renal
SNB-19 CNS = test system: SNB-19 CNS
SNB-78 CNS = test system: SNB-78 CNS
HL-60(TB) leukemia = test system: HL-60(TB) leukemia
UACC-62 melanoma = test system: UACC-62 melanoma
A549 NSCLC = test system: A549 NSCLC
SF-268 CNS = test system: SF-268 CNS
SK-OV-3 ovarian = test system: SK-OV-3 ovarian
HOP-92 NSCLC = test system: HOP-92 NSCLC
EKVX NSCLC = test system: EKVX NSCLC
U251 CNS = test system: U251 CNS
HOP-62 NSCLC = test system: HOP-62 NSCLC
LXFL 529 NSCLC = test system: LXFL 529 NSCLC
DMS 273 small cell lung = test system: DMS 273 small cell lung
CAKI-1 renal = test system: CAKI-1 renal
NCI-H460 lung = test system: NCI-H460 lung
NCI-H23 lung = test system: NCI-H23 lung
OVCAR-5 ovarian = test system: OVCAR-5 ovarian
M14 melanoma = test system: M14 melanoma

## COc1cc([C@@H]2c3cc4c(cc3[C@@H](NCc3ccccc3F)C3COC(=O)[C@@H]32)OCO4)cc(OC)c1O (some centres not stated)
COLO 205 colon
  TGI: 77.4 µM
OVCAR-8 ovarian
  TGI: > 100 µM
ACHN renal
  TGI: 4.28 µM
KM20L2 colon
  TGI: 8.65 µM
SF-539 CNS
  TGI: 16.2 µM
SN12C renal
  TGI: 8.08 µM
SNB-75 CNS
  TGI: 42.6 µM
OVCAR-4 ovarian
  TGI: > 100 µM
SF-295 CNS
  TGI: > 100 µM
OVCAR-3 ovarian
  TGI: 40.9 µM
UACC-257 melanoma
  TGI: 37.2 µM
CCRF-CEM leukemia
  TGI: > 100 µM
RPMI-8226 leukemia
  TGI: 13.1 µM
RXF 393 renal
  TGI: 54.7 µM
IGROV1 ovarian
  TGI: 20.5 µM
HCT-116 colon
  TGI: 21.9 µM
HCT-15 colon
  TGI: 22.4 µM
MOLT-4 leukemia
  TGI: 7.4 µM
SK-MEL-5 melanoma
  TGI: 7.86 µM
RXF-631 renal
  TGI: 19.8 µM
SK-MEL-28 melanoma
  TGI: 46.6 µM
HCC-2998 colon
  TGI: 28.3 µM
SK-MEL-2 melanoma
  TGI: 49.8 µM
SW-620 colon
  TGI: 39.1 µM
NCI-H226 lung
  TGI: 7.52 µM
MALME-3M melanoma
  TGI: 28.3 µM
786-0 renal
  TGI: 13.8 µM
M19-MEL melanoma
  TGI: 23.4 µM
DMS 114 small cell lung
  TGI: 28.3 µM
HT29 colon
  TGI: 25.5 µM
LOX IMVI melanoma
  TGI: 16.7 µM
HOP-18 NSCLC
  TGI: > 100 µM
DLD-1 colon
  TGI: > 100 µM
A498 renal
  TGI: 19.7 µM
UO-31 renal
  TGI: 17.3 µM
KM12 colon
  TGI: 18 µM
K-562 leukemia
  TGI: 35.4 µM
NCI-H522 lung
  TGI: 10.2 µM
TK-10 renal
  TGI: 81.4 µM
SNB-19 CNS
  TGI: 60.5 µM
SNB-78 CNS
  TGI: > 100 µM
HL-60(TB) leukemia
  TGI: 4.26 µM
UACC-62 melanoma
  TGI: 4.43 µM
A549 NSCLC
  TGI: 15.1 µM
SF-268 CNS
  TGI: > 100 µM
SK-OV-3 ovarian
  TGI: 9.45 µM
HOP-92 NSCLC
  TGI: 54.3 µM
EKVX NSCLC
  TGI: 45.9 µM
U251 CNS
  TGI: 9.02 µM
HOP-62 NSCLC
  TGI: 7.74 µM
LXFL 529 NSCLC
  TGI: 88.2 µM
DMS 273 small cell lung
  TGI: 21.2 µM
CAKI-1 renal
  TGI: 44.2 µM
NCI-H460 lung
  TGI: 13.2 µM
NCI-H23 lung
  TGI: 7.5 µM
OVCAR-5 ovarian
  TGI: 78.4 µM
M14 melanoma
  TGI: 13.6 µM
